Test results from US6984727B1, “Gene involved in brassinosteroid responses” (National Institute of Agrobiological Science, priority 2000, dated 2006).

Tested on: second leaf of rice
Experiment: leaf blade bend response test (brassinosteroid response test)
Assay type: in vivo
Conditions: cut second leaf germinated in the dark, immersed in 1 ng/ml solution for 48 hours
Text: The present gene was deduced to be a factor involved in the signal transduction system for plant hormones, taking note of the facts that the present gene was expressed in all plant bodies and that pleiotropic influences resulted from destroying this gene, as well as the possibility that the gene might be a factor involved in the signal transduction system. Presuming that the signal transduction system is that for brassinosteroid hormone in view of the resultant upright form, the inventors performed a leaf blade bend response test as a brassinosteroid response test, by using brassinolide, which is one kind of brassinosteroid hormone. The second leaf of rice which was allowed to germinate in the dark was cut off, and immersed in a 1 ng/ml of brassinosteroid solution for 48 hours.

CC(C)[C@H](C)[C@@H](O)[C@H](O)[C@@H](C)[C@H]1CC[C@H]2[C@@H]3COC(=O)[C@H]4C[C@H](O)[C@H](O)C[C@]4(C)[C@H]3CC[C@]12C [brassinolide]
bending of the leaf blades and leaf sheath junctions (Tos17-insertion mutant individuals (A0369, NC6148)): showed little bending thereof | bending of the leaf blades and leaf sheath junctions (wild type individuals (Akitakomachi, Nipponbare)): showed bending of the leaf blades and leaf sheath junctions
